Experimental data: US8227625B2, “4,5,6,7-tetrahydrobenzo[b]thiophene derivatives and their use as sigma receptor ligands” (Laboratorios del Dr. Esteve, S.A., priority 2006, dated 2012)

First: O=C(O)C(=O)O.c1ccc2c(c1)COC21CCN(CCC2CCCc3sccc32)CC1 (stereo not drawn)
Second: O=C(O)C(=O)O.O=C1OC2(CCN(CCC3CCCc4sccc43)CC2)c2ccccc21 (stereo not drawn)
The melting point of the first is lower: 172 to 176 °C for the first, 186 to 189 °C for the second.

Compared with `O=C(O)C(=O)O.OC1(c2ccc(Cl)cc2)CCN(CCC2CCCc3sccc32)CC1` (stereo not drawn), `Clc1ccc(C2CCN(CCC3CCCc4sccc43)CC2)cc1.O=C(O)C(=O)O` (stereo not drawn) [Example 34, 4-(4-chlorophenyl)-1-(2-(4,5,6,7-tetrahydrobenzo[b]thiophen-4-yl)ethyl)piperidine oxalate] is higher in melting point: 184 to 185 °C for the first, 201 to 202 °C for the second.

First: C1=CC2(CCN(CCC3CCCc4sccc43)CC2)c2ccccc21.O=C(O)C(=O)O (stereo not drawn)
Second: O=C(O)C(=O)O.O=C1N(c2ccccc2)CCC12CCN(CCC1CCCc3sccc31)CC2 (stereo not drawn) [Example 87, 2-phenyl-8-[2-(4,5,6,7-tetrahydrobenzo[b]thiophen-4-yl)-ethyl]-2,8-diazaspiro[4.5]decan-1-one oxalate]
The melting point of the first is lower: 198 to 199 °C for the first, 200 to 201 °C for the second.

First: CN(C/C=C1\CCCc2sccc21)Cc1ccccc1.O=C(O)C(=O)O [Example 4, (E)-N-benzyl-2-(6,7-dihydrobenzo[b]thien-4(5H)-ylidene)-N-methylethanamine oxalate]
Second: CN(C/C=C1\CCCc2sccc21)CCc1ccccc1.O=C(O)C(=O)O [Example 8, (E)-N-(2-(6,7-dihydrobenzo[b]thien-4(5H)-ylidene)ethyl)-N-methyl-2-phenylethanamine oxalate]
The melting point of the first is higher: 139 to 141 °C for the first, 129 to 130 °C for the second.

First: C(/CN1CCC(c2ccccc2)CC1)=C1/CCCc2sccc21.O=C(O)C(=O)O [Example 6, (E)-1-(2-(6,7-dihydrobenzo[b]thien-4(5H)-ylidene)ethyl)-4-phenylpiperidine oxalate]
Second: CC1CCN(C/C=C2\CCCc3sccc32)CC1.O=C(O)C(=O)O [Example 12, (E)-1-(2-(6,7-dihydrobenzo[b]thien-4(5H)-ylidene)ethyl)-4-methylpiperidine oxalate]
The melting point of the first is higher: 160 to 163 °C for the first, 139 to 141 °C for the second.

First: C(/CN1CCCCC1)=C1/CCCc2sccc21.O=C(O)C(=O)O [Example 10, (E)-1-(2-(6,7-dihydrobenzo[b]thien-4(5H)-ylidene)ethyl)piperidine oxalate]
Second: C(/CN1CCOCC1)=C1/CCCc2sccc21.O=C(O)C(=O)O [Example 14, (E)-4-(2-(6,7-dihydrobenzo[b]thien-4(5H)-ylidene)ethyl)morpholine oxalate]
The melting point of the first is lower: 148 to 150 °C for the first, 171 to 174 °C for the second.

Compared with `O=C(O)C(=O)O.c1ccc2c(c1)CN(CCC1CCCc3sccc31)C2` (stereo not drawn) [Example 22, 2-(2-(4,5,6,7-tetrahydrobenzo[b]thien-4-yl)ethyl)isoindoline oxalate], `COc1ccc2c(c1)CN(CCC1CCCc3sccc31)CC2.O=C(O)C(=O)O` (stereo not drawn) [Example 75, 7-methoxy-2-(2-(4,5,6,7-tetrahydrobenzo[b]thiophen-4-yl)ethyl)-1,2,3,4-tetrahydroisoquinoline oxalate] is lower in melting point: 203 to 205 °C for the first, 200 to 201 °C for the second.

`CN(CCC1CCCc2sccc21)Cc1ccccc1.O=C(O)C(=O)O` (stereo not drawn) [Example 24, N-benzyl-N-methyl-2-(4,5,6,7-tetrahydrobenzo[b]thien-4-yl)ethanamine oxalate] and `O=C(O)C(=O)O.O=C1N(Cc2ccccc2)CCC12CCN(CCC1CCCc3sccc31)CC2` (stereo not drawn) [Example 83, 2-benzyl-8-[2-(4,5,6,7-tetrahydrobenzo[b]thiophen-4-yl)-ethyl]-2,8-diazaspiro[4.5]decan-1-one oxalate] cannot be ordered by melting point: 168 to 171 °C for the first, 170 to 171 °C for the second.

`FC(F)(F)c1ccc(C2CCN(CCC3CCCc4sccc43)CC2)cc1.O=C(O)C(=O)O` (stereo not drawn) [Example 26, 1-(2-(4,5,6,7-tetrahydrobenzo[b]thiophen-4-yl)ethyl)-4-(4-(trifluoromethyl)phenyl)piperidine oxalate] and `Fc1ccc(C2CCN(CCC3CCCc4sccc43)CC2)cc1.O=C(O)C(=O)O` (stereo not drawn) [Example 46, 4-(4-fluorophenyl)-1-(2-(4,5,6,7-tetrahydrobenzo[b]thiophen-4-yl)ethyl)piperidine oxalate] cannot be ordered by melting point: 180 to 182 °C for the first, 179 to 181 °C for the second.

Compared with `Cc1ccccc1C1CCN(CCC2CCCc3sccc32)CC1.O=C(O)C(=O)O` (stereo not drawn) [Example 28, 1-(2-(4,5,6,7-tetrahydrobenzo[b]thiophen-4-yl)ethyl)-4-o-tolylpiperidine oxalate], `Fc1ccccc1C1CCN(CCC2CCCc3sccc32)CC1.O=C(O)C(=O)O` (stereo not drawn) [Example 54, 4-(2-fluorophenyl)-1-(2-(4,5,6,7-tetrahydrobenzo[b]thiophen-4-yl)ethyl)piperidine oxalate] is higher in melting point: 188 to 190 °C for the first, 208 to 209 °C for the second.

First: Fc1cccc(C2CCN(CCC3CCCc4sccc43)CC2)c1.O=C(O)C(=O)O (stereo not drawn) [Example 30, 4-(3-fluorophenyl)-1-(2-(4,5,6,7-tetrahydrobenzo[b]thiophen-4-yl)ethyl)piperidine oxalate]
Second: Clc1cccc(C2CCN(CCC3CCCc4sccc43)CC2)c1.O=C(O)C(=O)O (stereo not drawn) [Example 42, 4-(3-chlorophenyl)-1-(2-(4,5,6,7-tetrahydrobenzo[b]thiophen-4-yl)ethyl)piperidine oxalate]
The melting point of the first is higher: 203 to 204 °C for the first, 185 to 186 °C for the second.

First: O=C(O)C(=O)O.c1ccc2c(C3CCN(CCC4CCCc5sccc54)CC3)cccc2c1 (stereo not drawn) [Example 32, 4-(naphthalen-1-yl)-1-(2-(4,5,6,7-tetrahydrobenzo[b]thiophen-4-yl)ethyl)piperidine oxalate]
Second: O=C(O)C(=O)O.c1ccc2cc(C3CCN(CCC4CCCc5sccc54)CC3)ccc2c1 (stereo not drawn) [Example 50, 4-(naphthalen-2-yl)-1-(2-(4,5,6,7-tetrahydrobenzo[b]thiophen-4-yl)ethyl)piperidine oxalate]
The melting point of the first is lower: 197 to 198 °C for the first, 203 to 205 °C for the second.

First: COc1ccccc1C1CCN(CCC2CCCc3sccc32)CC1.O=C(O)C(=O)O (stereo not drawn) [Example 36, 4-(2-methoxyphenyl)-1-(2-(4,5,6,7-tetrahydrobenzo[b]thiophen-4-yl)ethyl)piperidine oxalate]
Second: COc1cccc(C2CCN(CCC3CCCc4sccc43)CC2)c1.O=C(O)C(=O)O (stereo not drawn) [Example 44, 4-(3-methoxyphenyl)-1-(2-(4,5,6,7-tetrahydrobenzo[b]thiophen-4-yl)ethyl)piperidine oxalate]
The melting point of the first is higher: 160 to 162 °C for the first, 157 to 159 °C for the second.

First: FC(F)(F)c1cc(C2CCN(CCC3CCCc4sccc43)CC2)cc(C(F)(F)F)c1.O=C(O)C(=O)O (stereo not drawn) [Example 48, 4-(3,5-bis(trifluoromethyl)phenyl)-1-(2-(4,5,6,7-tetrahydrobenzo[b]thiophen-4-yl)ethyl)piperidine oxalate]
Second: COc1ccc(C2CCN(CCC3CCCc4sccc43)CC2)cc1.O=C(O)C(=O)O (stereo not drawn) [Example 63, 4-(4-methoxyphenyl)-1-(2-(4,5,6,7-tetrahydrobenzo[b]thiophen-4-yl)ethyl)piperidine oxalate]
The melting point of the first is higher: 205 to 206 °C for the first, 175 to 176 °C for the second.

First: O=C(O)C(=O)O.c1ccc2oc(C3CCN(CCC4CCCc5sccc54)CC3)cc2c1 (stereo not drawn) [Example 52, 4-(benzofuran-2-yl)-1-(2-(4,5,6,7-tetrahydrobenzo[b]thiophen-4-yl)ethyl)piperidine oxalate]
Second: O=C(O)C(=O)O.c1ccc2c(C3CCN(CCC4CCCc5sccc54)CC3)csc2c1 (stereo not drawn) [Example 57, 4-(benzo[b]thiophen-3-yl)-1-(2-(4,5,6,7-tetrahydrobenzo[b]thiophen-4-yl)ethyl)piperidine oxalate]
The melting point of the first is higher: 207 to 208 °C for the first, 190 to 192 °C for the second.

Compared with `O=C(O)C(=O)O.c1ccc2[nH]c(C3CCN(CCC4CCCc5sccc54)CC3)nc2c1` (stereo not drawn) [Example 59, 2-(1-(2-(4,5,6,7-tetrahydrobenzo[b]thiophen-4-yl)ethyl)piperidin-4-yl)-1H-benzo[d]imidazole oxalate], `Cc1nc2ccccc2n1C1CCN(CCC2CCCc3sccc32)CC1.O=C(O)C(=O)O` (stereo not drawn) [Example 61, 2-methyl-1-(1-(2-(4,5,6,7-tetrahydrobenzo[b]thiophen-4-yl)ethyl)piperidin-4-yl)-1H-benzo[d]imidazole oxalate] is lower in melting point: 223 to 225 °C for the first, 155 to 157 °C for the second.

Compared with `CN1CCC2(CCN(CCC3CCCc4sccc43)CC2)C1=O.O=C(O)C(=O)O` (stereo not drawn) [Example 65, 2-Methyl-8-[2-(4,5,6,7-tetrahydrobenzo[b]thiophen-4-yl)-ethyl]-2,8-diazaspiro[4.5]decan-1-one oxalate], `CC(C)(C)N1CCC2(CCN(CCC3CCCc4sccc43)CC2)C1=O.O=C(O)C(=O)O` (stereo not drawn) [Example 81, 2-tert-butyl-8-[2-(4,5,6,7-tetrahydrobenzo[b]thiophen-4-yl)-ethyl]-2,8-diazaspiro[4.5]decan-1-one oxalate] is higher in melting point: 140 to 142 °C for the first, 172 to 173 °C for the second.

Compared with `O=C(O)C(=O)O.O=C1N(c2ccc(Cl)cc2)CCC12CCN(CCC1CCCc3sccc31)CC2` (stereo not drawn) [Example 69, 2-(4-Chlorophenyl)-8-[2-(4,5,6,7-tetrahydrobenzo[b]thiophen-4-yl)-ethyl]-2,8-diazaspiro[4.5]decan-1-one oxalate], `COc1ccc(N2CCC3(CCN(CCC4CCCc5sccc54)CC3)C2=O)cc1.O=C(O)C(=O)O` (stereo not drawn) [Example 85, 2-(4-Methoxyphenyl)-8-[2-(4,5,6,7-tetrahydrobenzo[b]thiophen-4-yl)-ethyl]-2,8diazaspiro[4.5]decan-1-one oxalate] is lower in melting point: 218 to 220 °C for the first, 205 to 206 °C for the second.

First: O=C(O)C(=O)O.O=C1NCCC12CCN(CCC1CCCc3sccc31)CC2 (stereo not drawn) [Example 71, 8-[2-(4,5,6,7-Tetrahydrobenzo[b]thiophen-4-yl)-ethyl]-2,8-diazaspiro[4.5]decan-1-one oxalate]
Second: Clc1cc(Cl)c2c(c1)CN(CCC1CCCc3sccc31)CC2.O=C(O)C(=O)O (stereo not drawn) [Example 77, 5,7-dichloro-2-(2-(4,5,6,7-tetrahydrobenzo[b]thiophen-4-yl)ethyl)-1,2,3,4-tetrahydroisoquinoline oxalate]
The melting point of the first is lower: 147 to 149 °C for the first, 182 to 184 °C for the second.

`O=C(O)C(=O)O.c1ccc2c(c1)ccn2C1CCN(CCC2CCCc3sccc32)CC1` (stereo not drawn) [Example 79, 1-(1-(2-(4,5,6,7-tetrahydrobenzo[b]thiophen-4-yl)ethyl)piperidin-4-yl)-1H-indole oxalate] gave a melting point of 162 to 164 °C.
